The compounds below were run against T1, Human MGAT-2 (Homo sapiens, UniProt Q3SYC2) (assay: MGAT LCMS Assay). Conditions: not given.
T1 construct: made in house; host or cells: Sf9 cells (membrane preparation)
Assay type: biochemical
Method: Assay plates were run through a fully automated robotics system and shaken for 5 seconds every minute for a total 10 minutes. The reactions were then quenched with 120 μL of ice cold methanol containing 1 μg/mL 1,2-distearoyl-rac-glycerol as the internal standard. Plates were shaken for 2 minutes and spun down to remove protein precipitation. After the spin, samples were transferred to LC/MS compatible PCR plates. For LC/MS analysis, a ThermoFisher Surveyor pump, utilizing a Waters […]® C8, 50×2.1 mm column, was used for the chromatography of enzyme products. The buffer system consists of 0.1% formic acid in water with a mobile phase consisting 0.1% formic acid in methanol. […] The first 0.5 minutes of each injection was diverted to waste to eliminate the presence of Phosphate buffer in the enzymatic reaction. The column was run at 0.6 mL/min and a temperature of 65° C. Mass spectrometry analysis of the samples was performed on a ThermoFisher Quantum Triple quad utilizing APCI (+) as the mode of ionization. […] The ratio of Diolein to internal standard (Peak Area Ratio) is utilized to calculate IC50 values.

T1 sequence (Q3SYC2 whole entry): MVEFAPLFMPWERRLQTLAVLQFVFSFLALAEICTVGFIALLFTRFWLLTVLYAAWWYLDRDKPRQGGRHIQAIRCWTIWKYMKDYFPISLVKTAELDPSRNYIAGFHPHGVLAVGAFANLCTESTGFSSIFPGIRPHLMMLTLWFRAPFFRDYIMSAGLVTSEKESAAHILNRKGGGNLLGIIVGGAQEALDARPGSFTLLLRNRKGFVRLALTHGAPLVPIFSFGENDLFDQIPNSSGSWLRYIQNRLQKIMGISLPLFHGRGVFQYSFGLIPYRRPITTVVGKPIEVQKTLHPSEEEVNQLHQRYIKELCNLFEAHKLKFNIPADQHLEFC

**Q.** Which IC50 does the source give for `CCc1ccc(-c2cc(-c3ccc(OCCCCCC(F)(F)F)cc3C(F)(F)F)[nH]c(=O)c2-c2nn[nH]n2)s1` [Example 151, 4-(5-Ethylthiophen-2-yl)-3-(2H-tetrazol-5-yl)-6-(4-((6,6,6-trifluorohexyl)oxy)-2-(trifluoromethyl)phenyl)pyridin-2(1H)-one] here?
**A.** 0.3 nM

Same assay, conditions: human MGAT2 membranes expressed in Sf9 cells; 100 μM 2-oleoylglycerol, 15 μM oleoyl-coenzyme A; read-out: h-MGAT LCMS IC50

**Q.** How did the IC50 turn out when `CC(C)(C)c1ccc(-c2cc(-c3ccc(OCCCC(F)(F)F)cc3)[nH]c(=O)c2-c2nnn[nH]2)cc1` [Example 48, 4-(4-(tert-Butyl)phenyl)-3-(1H-tetrazol-5-yl)-6-(4-(4,4,4-trifluorobutoxy)phenyl)pyridin-2(1H)-one] was run?
**A.** 40 nM

**Q.** For `CCOc1ccc(NC(=O)c2c(-c3ccc(N(C)C)cc3)cc(C3(F)CCCCC3)[nH]c2=O)cc1` [Example 39, 4-(4-(Dimethylamino)phenyl)-N-(4-ethoxyphenyl)-6-(1-fluorocyclohexyl)-2-oxo-1,2-dihydropyridine-3-carboxamide], which IC50 is on record?
**A.** 139 nM

**Q.** With `Cc1ccc(-c2c(F)c(-c3ccc(OCCCC(F)(F)F)cc3)[nH]c(=O)c2-c2nnn[nH]2)cc1` [Example 17, 5-Fluoro-3-(1H-tetrazol-5-yl)-4-(p-tolyl)-6-(4-(4,4,4-trifluorobutoxy)phenyl)pyridin-2(1H)-one] as the compound, how does the IC50 read?
**A.** 298 nM

**Q.** `CC(C)(C)c1ccc(-c2cc(-c3ccc(OCCCC(F)(F)F)cc3)[nH]c(=O)c2C(=O)Nc2ccccc2)cc1` [Example 44, 4-(4-(tert-Butyl)phenyl)-2-oxo-N-phenyl-6-(4-(4,4,4-trifluorobutoxy)phenyl)-1,2-dihydropyridine-3-carboxamide] was tested. Which IC50 did it give?
**A.** 6 nM

**Q.** How did the IC50 turn out when `Cc1ccc(-c2c(Cl)c(-c3ccc(OCCCC(F)(F)F)cc3)[nH]c(=O)c2-c2nnn[nH]2)cc1` [Example 19, 5-Chloro-3-(1H-tetrazol-5-yl)-4-(p-tolyl)-6-(4-(4,4,4-trifluorobutoxy)phenyl)pyridin-2(1H)-one] was run?
**A.** 100 nM

**Q.** With `O=c1[nH]c(-c2ccc(OCCCCCC(F)(F)F)cc2F)cc(-c2ccc(C(F)F)cc2)c1-c1nnn[nH]1` [Example 130, 4-(4-(Difluoromethyl)phenyl)-6-(2-fluoro-4-((6,6,6-trifluorohexyl)oxy)phenyl)-3-(1H-tetrazol-5-yl)pyridin-2(1H)-one] as the compound, how does the IC50 read?
**A.** 4 nM

**Q.** With `CCCCCc1ccc(-c2cc(-c3ccc(C)cc3)c(C(=O)Nc3ccc(OCC)cc3)c(=O)[nH]2)cc1` [Example 27, N-(4-Ethoxyphenyl)-2-oxo-6-(4-pentylphenyl)-4-(p-tolyl)-1,2-dihydropyridine-3-carboxamide] as the compound, how does the IC50 read?
**A.** 86 nM

**Q.** How did the IC50 turn out when `O=c1[nH]c(-c2ccc(OCCCC(F)(F)F)cc2)cc(-c2ccn(CC3CC3)n2)c1-c1nnn[nH]1` [Example 97] was run?
**A.** 153 nM

**Q.** For `CN(C)c1ccc(-c2cc(-c3ccc(OCCCCCC(F)(F)F)cc3)[nH]c(=O)c2-c2nnn[nH]2)cc1` [Example 59, 4-(4-(Dimethylamino)phenyl)-3-(1H-tetrazol-5-yl)-6-(4-((6,6,6-trifluorohexyl)oxy)phenyl)pyridin-2(1H)-one], which IC50 is on record?
**A.** 6 nM

**Q.** Which IC50 does the source give for `CC(C)n1ccc(-c2cc(-c3ccc(CCCCC(F)(F)F)cc3)[nH]c(=O)c2-c2nn[nH]n2)n1` [Example 74, 4-(1-Isopropyl-1H-pyrazol-3-yl)-3-(2H-tetrazol-5-yl)-6-(4-(5.5,5-trifluoropentyl)phenyl)pyridin-2(1H)-one] here?
**A.** 255 nM

**Q.** Which IC50 does the source give for `O=c1[nH]c(-c2ccc(OCCCCCC(F)(F)F)cc2F)cc(-c2ccc(C3CC3)cc2)c1-c1nnn[nH]1` [Example 123, 4-(4-Cyclopropylphenyl)-6-(2-fluoro-4-((6,6,6-trifluorohexyl)oxy)phenyl)-3-(1H-tetrazol-5-yl)pyridin-2(1H)-one] here?
**A.** 11 nM

**Q.** For `Cc1ccc(-c2c(Br)c(-c3ccc(OCCCC(F)(F)F)cc3)[nH]c(=O)c2-c2nn[nH]n2)cc1C` [Example 36, 5-Bromo-4-(3,4-dimethylphenyl)-3-(2H-tetrazol-5-yl)-6-(4-(4,4,4-trifluorobutoxy)phenyl)pyridin-2(1H)-one], which IC50 is on record?
**A.** 311 nM

**Q.** For `O=c1cc(-c2ncc(C3CC3)s2)cc(-c2ccc(OCCCCCC(F)(F)F)cc2F)[nH]1` [Example 165, 4-(5-Cyclopropyl-1,3-thiazol-2-yl)-6-{2-fluoro-4-[(6,6,6-trifluorohexyl)oxy]phenyl}-1,2-dihydropyridin-2-one], which IC50 is on record?
**A.** 420 nM

**Q.** For `Cc1ccc(-c2cc(-c3ccc(OCCCC(F)(F)F)cc3)[nH]c(=O)c2-c2nnn[nH]2)cc1C` [Example 50, 4-(3,4-Dimethylphenyl)-3-(1H-tetrazol-5-yl)-6-(4-(4,4,4-trifluorobutoxy)phenyl)pyridin-2(1H)-one], which IC50 is on record?
**A.** 109 nM

**Q.** How did the IC50 turn out when `O=c1[nH]c(-c2ccc(CCCCC(F)(F)F)cc2F)cc(-c2ccn(C3CCC3)n2)c1-c1nnn[nH]1` [Example 103] was run?
**A.** 26 nM

**Q.** For `CCc1ccc(-c2c(Cl)c(-c3ccc(OCCCC(F)(F)F)cc3)[nH]c(=O)c2-c2nnn[nH]2)s1` [Example 128, 5-Chloro-4-(5-ethylthiophen-2-yl)-3-(1H-tetrazol-5-yl)-6-(4-(4,4,4-trifluorobutoxy)phenyl)pyridin-2(1H)-one], which IC50 is on record?
**A.** 83 nM

**Q.** For `CCn1ccc(-c2cc(-c3ccc(OCCCC(F)(F)F)cc3C(F)(F)F)[nH]c(=O)c2-c2nn[nH]n2)n1` [Example 129, 4-(1-Ethyl-1H-pyrazol-3-yl)-3-(2H-tetrazol-5-yl)-6-(4-(4,4,4-trifluorobutoxy)-2-(trifluoromethyl)phenyl)pyridin-2(1H)-one], which IC50 is on record?
**A.** 51 nM

**Q.** For `Cc1ccc(-c2cc(-c3ccc(OCCCC(F)(F)F)cc3F)[nH]c(=O)c2C(=O)Nc2ccc(OC(F)(F)F)cc2)cc1` [Example 122, 6-(2-Fluoro-4-(4,4,4-trifluorobutoxy)phenyl)-2-oxo-4-(p-tolyl)-N-(4-(trifluorormethoxy)phenyl)-1,2-dihydropyridine-3-carboxamide], which IC50 is on record?
**A.** 27 nM

**Q.** `CCc1ccc(-c2cc(-c3ccc(C4=CCC(C(C)(C)C)CC4)cc3)[nH]c(=O)c2-c2nn[nH]n2)s1` (stereo not shown) [Example 163, 6-[4-(4-tert-Butylcyclohex-1-en-1-yl)phenyl]-4-(5-ethylthiophen-2-yl)-3-(2H-1,2,3,4-tetrazol-5-yl)-1,2-dihydropyridin-2-one] was tested. Which IC50 did it give?
**A.** 69 nM

**Q.** For `O=c1[nH]c(-c2ccc(OCCCCCC(F)(F)F)cc2)cc(-c2ccn(C3CC3)n2)c1-c1nnn[nH]1` [Example 107], which IC50 is on record?
**A.** 99 nM

**Q.** How did the IC50 turn out when `CCc1ccc(-c2cc(-c3ccc(C4CCC(C)(C)CC4)cc3)[nH]c(=O)c2-c2nn[nH]n2)s1` [Example 161, 6-[4-(4,4-Dimethylcyclohexyl)phenyl]-4-(5-ethylthiophen-2-yl)-3-(2H-1,2,3,4-tetrazol-5-yl)-1,2-dihydropyridin-2-one] was run?
**A.** 76 nM

**Q.** `CCOc1ccc(NC(=O)c2c(-c3cnc(N(C)C)s3)cc(C3(O)CCCCC3)[nH]c2=O)cc1` [Example 9, 4-(2-(Dimethylamino)thiazol-5-yl)-N-(4-ethoxyphenyl)-6-(1-hydroxycyclohexyl)-2-oxo-1,2-dihydropyridine-3-carboxamide] was tested. Which IC50 did it give?
**A.** 293 nM

**Q.** Which IC50 does the source give for `CCc1ccc(-c2cc(-c3ccc(OCCCC(F)(F)F)cc3)[nH]c(=O)c2C(=O)NS(=O)(=O)C2CC2)s1` [Example 121] here?
**A.** 11 nM

**Q.** `O=c1[nH]c(-c2ccc(OCCCCCC(F)(F)F)cc2)cc(-c2ccc(OC(F)F)cc2)c1-n1nn[nH]c1=O` [Example 162, 4-[4-(Difluoromethoxy)phenyl]-3-(5-oxo-4,5-dihydro-1H-1,2,3,4-tetrazol-1-yl)-6-{4-[(6,6,6-trifluorohexyl)oxy]phenyl}-1,2-dihydropyridin-2-one] was tested. Which IC50 did it give?
**A.** 1970 nM

**Q.** For `O=C(Nc1ccc(OC(F)(F)F)cc1)c1c(-c2ccn(CC3CC3)n2)cc(-c2ccc(OCCCCCC(F)(F)F)cc2F)[nH]c1=O` [Example 118, 4-(1-(Cyclopropylmethyl)-1H-pyrazol-3-yl)-6-(2-fluoro-4-((6,6,6-trifluorohexyl)oxy)phenyl)-2-oxo-N-(4-(trifluoromethoxy)phenyl)-1,2-dihydropyridine-3-carboxamide], which IC50 is on record?
**A.** 19 nM

**Q.** For `CCOc1ccc(NC(=O)c2c(-c3ccc(C)cc3)c(C)c(C3CCCCC3)[nH]c2=O)cc1` [Example 25, 6-Cyclohexyl-N-(4-ethoxyphenyl)-5-methyl-2-oxo-4-(p-tolyl)-1,2-dihydropyridine-3-carboxamide], which IC50 is on record?
**A.** 72 nM

**Q.** Which IC50 does the source give for `CCCC1CC=C(c2ccc(-c3cc(-c4ccn(CC5CC5)n4)c(-c4nn[nH]n4)c(=O)[nH]3)cc2)CC1` (stereo not shown) [Example 173, 4-[1-(Cyclopropylmethyl)-1H-pyrazol-3-yl]-6-[4-(4-propylcyclohex-1-en-1-yl)phenyl]-3-(2H-1,2,3,4-tetrazol-5-yl)-1,2-dihydropyridin-2-one] here?
**A.** 57 nM

**Q.** Which IC50 does the source give for `Cc1ccc(-c2cc(-c3ccc(OCCCC(F)(F)F)cc3)[nH]c(=O)c2C(=O)NC2CCC2)cc1` [Example 79, N-Cyclobutyl-2-oxo-4-(p-tolyl)-6-(4-(4,4,4-trifluorobutoxy)phenyl)-1,2-dihydropyridine-3-carboxamide] here?
**A.** 198 nM

**Q.** `CCc1ccc(-c2cc(-c3ccc(OCCCC(F)(F)F)cc3)[nH]c(=O)c2C(=O)NS(C)(=O)=O)s1` [Example 21, 4-(5-Ethylthiophen-2-yl)-N-(methylsulfonyl)-2-oxo-6-(4-(4,4,4-trifluorobutoxy)phenyl)-1,2-dihydropyridine-3-carboxamide] was tested. Which IC50 did it give?
**A.** 21 nM

**Q.** For `O=c1[nH]c(-c2ccc(OCCCCCC(F)(F)F)cc2F)cc(-c2ccn(CC3CC3)n2)c1-n1nn[nH]c1=O` [Example 168, 4-[1-(Cyclopropylmethyl)-1H-pyrazol-3-yl]-6-{2-fluoro-4-[(6,6,6-trifluorohexyl)oxy]phenyl}-3-(5-oxo-4,5-dihydro-1H-1,2,3,4-tetrazol-1-yl)-1,2-dihydropyridin-2-one], which IC50 is on record?
**A.** 373 nM

From patent publication US9974778B2, “Substituted pyridinones as MGAT2 inhibitors” (BRISTOL-MYERS SQUIBB COMPANY, priority 2014, dated 2018)
